According to US5035877A, “Non-ionic contrast media from ionic contrast media” (Cook Imaging Corporation, priority 1990, dated 1991):

Experiments:
[1] = Viscosity; assay type: physicochemical; settings: for viscosity (in words): compared with existing compounds
Description: (§1) Compounds VIII and XVI were tested from stability, solubility, osmolality, viscosity and systemic toxicity.
(§2) *All at 300 mg I/ml concentration and 37° C. Injection rates 1

[2] = tested on: Mice (CD-1); assay: Estimated i.v. LD50, mice (systemic toxicity); assay type: in vivo; settings: 300 mg I/ml, 37° C., injection rate 1 ml/min
Description: as §1, §2
(§3) ml/min in mice and 5 ml/min in rats.
(§4) °Ref. Salvesen, S. in Acta Radiol. Suppl. 362, p. 73, 1980

[3] = Stability; assay type: physicochemical; settings: compared with existing compounds
Description: as §1

[4] = Osmolality; assay type: physicochemical; settings: for osmolality (in words): compared with existing compounds
Description: as §1, §2

[5] = Systemic toxicity (conventional tests, in words); assay type: in vivo; settings: compared with existing compounds
Description: as §1

[6] = tested on: Rats (Lewis); assay: Estimated i.v. LD50, rats (systemic toxicity); assay type: in vivo; settings: 300 mg I/ml, 37° C., injection rate 5 ml/min
Description: as §1, §2, §3, §4

[7] = Solubility; assay type: physicochemical; settings: compared with existing compounds
Description: as §1

[8] = must be dispensed lyophilized and reconstituted prior to use; cited from earlier work

| SMILES | viscosity (in words) [1] | Estimated i.v. LD50 [2] | stability (in words) [3] | osmolality (in words) [4] | systemic toxicity (in words) [5] | Estimated i.v. LD50 [6] | solubility (in words) [7] | hydrolytic stability (in words) [8] | Viscosity ([1]; 300 mg I/ml, 37° C.) | Osmolality ([4]; 300 mg I/ml, 37° C.) |
| --- | --- | --- | --- | --- | --- | --- | --- | --- | --- | --- |
| CNC(=O)c1c(I)c(C(=O)N[C@@H](CO)[C@H](O)CO)c(I)c(N(CC(O)CO)C(C)=O)c1I (relative stereo) [XVI, 5-(N-2,3-Dihydroxypropylacetamido)-2,4,6-triiodo-N-methyl-N'-(1,3,4-trihydroxy-erythro-but-2-yl) isophthalamide] | comparable properties in the other categories | 12-13 gI/kg | comparable properties in the other categories | substantially reduced osmolality | comparable properties in the other categories | 13.5-14 gI/kg | comparable properties in the other categories |  |  |  |
| CC(=O)N(CC(O)CO)c1c(I)c(C(=O)NCC(O)CO)c(I)c(C(=O)NCC(O)CO)c1I (centres unmarked) [Iohexol] |  | 16-17 gI/kg |  |  |  | 13.5-15 gI/kg |  |  |  |  |
| C[C@H](O)C(=O)Nc1c(I)c(C(=O)NC(CO)CO)c(I)c(C(=O)NC(CO)CO)c1I [Iopamidol] |  | 17-18 gI/kg |  |  |  | 12.2-13 gI/kg |  |  |  |  |
| COCC(=O)Nc1c(I)c(C(=O)NCC(O)CO)c(I)c(C(=O)N(C)CC(O)CO)c1I (centres unmarked) [Iopromide] |  | 11.5-13.0 gI/kg |  |  |  | 10-11.5 gI/kg |  |  |  |  |
| CC(=O)Nc1c(I)c(C(=O)N[C@H]2C(O)O[C@H](CO)[C@@H](O)[C@@H]2O)c(I)c(N(C)C(C)=O)c1I (some centres unmarked) [Metrizamide] |  |  |  |  |  |  |  | hydrolytic instability |  |  |
| CC(=O)N(CC(O)CO)c1c(I)c(C(=O)NCCO)c(I)c(C(=O)NCC(O)CO)c1I (centres unmarked) [VIII, 5-(N-2,3-dihydroxypropylacetamido)-2,4,6-triiodo-N-(2,3-dihydroxypropyl)-N'-(2-hydroxyethyl)-isophthalamide] | comparable properties in the other categories | 16-17 gI/kg | comparable properties in the other categories | substantially reduced osmolality | comparable properties in the other categories | 14-16.5 gI/kg | comparable properties in the other categories |  | 5.3 cps | 560 mOsm/kg |
